Patent US7666890B2, “Synthesis and herbicidal activity of 1- (2-substituted benzo[d]thiazol-5-yl)-1H-1,2,4-triazol-5(4H)-one derivatives” (Huazhong Normal University, priority 2007, dated 2010)

Key:
Experiment in all cases: Test of herbicidal activities (greenhouse pot method)
Format in all cases: in vivo
Conditions in all cases: single dose 300 g ai./h, treated before/after germination, 15 days later, greenhouse pot
[1] = tested on: Amaranthus retroflexus
Outline: (§1)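 Greenhouse pot test on weeds grown in mixed garden/mountain/humus soil at 15-30° C; pre- and post-emergence spray at a single dose of 300 g ai./h via automatic spraying tower (0.2 MPa). Inhibition scored after 15 days into five levels A (90-100%) to E (<50%); triplicate with blank control.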

[2] = tested on: Chenopodium album
Outline: as §1

[3] = tested on: Setaria viridis
Outline: as §1

[4] = tested on: Brassica juncea
Outline: as §1

[5] = tested on: Digiatria sanguinalis
Outline: as §1

[6] = tested on: Echinochloa crusgalli
Outline: as §1

Structure (SMILES) | Herbicidal activity Amaranthus retroflexus (inhibition level) [1] | Herbicidal activity Chenopodium album (inhibition level) [2] | Herbicidal activity Setaria viridis (inhibition level) [3] | Herbicidal activity Brassica juncea (inhibition level) [4] | Herbicidal activity Digiatria sanguinalis (inhibition level) [5] | Herbicidal activity Echinochloa crusgalli (inhibition level) [6]
CCOC(=O)CS(=O)(=O)c1nc2cc(-n3nc(C)n(C(F)F)c3=O)c(Br)cc2s1 [Compound 54] | B (80 ≦ B < 90%) | C (60 ≦ C < 80%) | D (50 ≦ D < 60%) | A (90 ≦ A ≦ 100%) | C (60 ≦ C < 80%) | B (80 ≦ B < 90%)
CCCCCCS(=O)(=O)c1nc2cc(-n3nc(C)n(C(F)F)c3=O)c(F)cc2s1 [Compound 55] | C (60 ≦ C < 80%) | A (90 ≦ A ≦ 100%) | B (80 ≦ B < 90%) | C (60 ≦ C < 80%) | B (80 ≦ B < 90%) | E (E < 50%)
CCS(=O)(=O)c1nc2cc(-n3nc(C)n(C(F)F)c3=O)c(F)cc2s1 [Compound 56] | A (90 ≦ A ≦ 100%) | C (60 ≦ C < 80%) | D (50 ≦ D < 60%) | A (90 ≦ A ≦ 100%) | D (50 ≦ D < 60%) | B (80 ≦ B < 90%)
CCCCCCS(=O)(=O)c1nc2cc(-n3nc(C)n(C(F)F)c3=O)c(Cl)cc2s1 [Compound 57] | A (90 ≦ A ≦ 100%) | C (60 ≦ C < 80%) | D (50 ≦ D < 60%) | B (80 ≦ B < 90%) | A (90 ≦ A ≦ 100%) | D (50 ≦ D < 60%)
CCS(=O)(=O)c1nc2cc(-n3nc(C)n(C(F)F)c3=O)c(Cl)cc2s1 [Compound 58] | A (90 ≦ A ≦ 100%) | A (90 ≦ A ≦ 100%) | C (60 ≦ C < 80%) | B (80 ≦ B < 90%) | A (90 ≦ A ≦ 100%) | B (80 ≦ B < 90%)
CCOC(=O)C(C)S(=O)(=O)c1nc2cc(-n3nc(C)n(C(F)F)c3=O)c(Br)cc2s1 (stereo not drawn) [Compound 59] | A (90 ≦ A ≦ 100%) | B (80 ≦ B < 90%) | C (60 ≦ C < 80%) | A (90 ≦ A ≦ 100%) | C (60 ≦ C < 80%) | D (50 ≦ D < 60%)
C=CCS(=O)(=O)c1nc2cc(-n3nc(C)n(C(F)F)c3=O)c(Br)cc2s1 [Compound 60] | A (90 ≦ A ≦ 100%) | B (80 ≦ B < 90%) | C (60 ≦ C < 80%) | A (90 ≦ A ≦ 100%) | A (90 ≦ A ≦ 100%) | B (80 ≦ B < 90%)
CCOC(=O)C(C)S(=O)(=O)c1nc2cc(-n3nc(C)n(C(F)F)c3=O)c(F)cc2s1 (stereo not drawn) [Compound 61] | A (90 ≦ A ≦ 100%) | B (80 ≦ B < 90%) | C (60 ≦ C < 80%) | A (90 ≦ A ≦ 100%) | A (90 ≦ A ≦ 100%) | C (60 ≦ C < 80%)
Cc1nn(-c2cc3nc(S(C)(=O)=O)sc3cc2F)c(=O)n1C(F)F [Compound 62] | C (60 ≦ C < 80%) | D (50 ≦ D < 60%) | A (90 ≦ A ≦ 100%) | D (50 ≦ D < 60%) | B (80 ≦ B < 90%) | A (90 ≦ A ≦ 100%)
CCCCS(=O)(=O)c1nc2cc(-n3nc(C)n(C(F)F)c3=O)c(F)cc2s1 [Compound 63] | A (90 ≦ A ≦ 100%) | A (90 ≦ A ≦ 100%) | C (60 ≦ C < 80%) | B (80 ≦ B < 90%) | A (90 ≦ A ≦ 100%) | B (80 ≦ B < 90%)
CCCS(=O)(=O)c1nc2cc(-n3nc(C)n(C(F)F)c3=O)c(F)cc2s1 [Compound 64] | B (80 ≦ B < 90%) | B (80 ≦ B < 90%) | B (80 ≦ B < 90%) | D (50 ≦ D < 60%) | A (90 ≦ A ≦ 100%) | B (80 ≦ B < 90%)
CCOC(=O)CS(=O)(=O)c1nc2cc(-n3nc(C)n(C(F)F)c3=O)c(F)cc2s1 [Compound 65] | A (90 ≦ A ≦ 100%) | A (90 ≦ A ≦ 100%) | B (80 ≦ B < 90%) | A (90 ≦ A ≦ 100%) | B (80 ≦ B < 90%) | C (60 ≦ C < 80%)
C=CCS(=O)(=O)c1nc2cc(-n3nc(C)n(C(F)F)c3=O)c(F)cc2s1 [Compound 66] | B (80 ≦ B < 90%) | B (80 ≦ B < 90%) | A (90 ≦ A ≦ 100%) | B (80 ≦ B < 90%) | B (80 ≦ B < 90%) | A (90 ≦ A ≦ 100%)
CCOC(=O)C(C)S(=O)(=O)c1nc2cc(-n3nc(C)n(C(F)F)c3=O)c(Cl)cc2s1 (stereo not drawn) [Compound 67] | C (60 ≦ C < 80%) | B (80 ≦ B < 90%) | B (80 ≦ B < 90%) | B (80 ≦ B < 90%) | A (90 ≦ A ≦ 100%) | C (60 ≦ C < 80%)
Cc1nn(-c2cc3nc(S(C)(=O)=O)sc3cc2Cl)c(=O)n1C(F)F [Compound 68] | A (90 ≦ A ≦ 100%) | C (60 ≦ C < 80%) | B (80 ≦ B < 90%) | B (80 ≦ B < 90%) | B (80 ≦ B < 90%) | A (90 ≦ A ≦ 100%)
CCCCS(=O)(=O)c1nc2cc(-n3nc(C)n(C(F)F)c3=O)c(Cl)cc2s1 [Compound 69] | A (90 ≦ A ≦ 100%) | C (60 ≦ C < 80%) | B (80 ≦ B < 90%) | B (80 ≦ B < 90%) | B (80 ≦ B < 90%) | A (90 ≦ A ≦ 100%)
CCOC(=O)CS(=O)(=O)c1nc2cc(-n3nc(C)n(C(F)F)c3=O)c(Cl)cc2s1 [Compound 70] | B (80 ≦ B < 90%) | B (80 ≦ B < 90%) | B (80 ≦ B < 90%) | B (80 ≦ B < 90%) | B (80 ≦ B < 90%) | B (80 ≦ B < 90%)
C=CCS(=O)(=O)c1nc2cc(-n3nc(C)n(C(F)F)c3=O)c(Cl)cc2s1 [Compound 71] | C (60 ≦ C < 80%) | B (80 ≦ B < 90%) | B (80 ≦ B < 90%) | B (80 ≦ B < 90%) | C (60 ≦ C < 80%) | C (60 ≦ C < 80%)
CCCS(=O)(=O)c1nc2cc(-n3nc(C)n(C(F)F)c3=O)c(Cl)cc2s1 [Compound 72] | A (90 ≦ A ≦ 100%) | B (80 ≦ B < 90%) | C (60 ≦ C < 80%) | B (80 ≦ B < 90%) | B (80 ≦ B < 90%) | A (90 ≦ A ≦ 100%)
Cc1nn(-c2cc3nc(SCc4cccs4)sc3cc2F)c(=O)n1C(F)F [Compound 73] | A (90 ≦ A ≦ 100%) | A (90 ≦ A ≦ 100%) | B (80 ≦ B < 90%) | B (80 ≦ B < 90%) | A (90 ≦ A ≦ 100%) | B (80 ≦ B < 90%)
Cc1nn(-c2cc3nc(SCn4cnc5ccccc5c4=O)sc3cc2F)c(=O)n1C(F)F [Compound 74] | B (80 ≦ B < 90%) | C (60 ≦ C < 80%) | A (90 ≦ A ≦ 100%) | B (80 ≦ B < 90%) | B (80 ≦ B < 90%) | A (90 ≦ A ≦ 100%)
